In patent US11168052B2, “Carbamate derivative compounds, processes for preparing them and their uses” (BIO-PHARM SOLUTIONS CO., LTD., priority 2016, dated 2021):

How the values were obtained:
[1] = system: MES (electroshock) seizure in mice; test: Anti-epilepsy activity, MES test in mouse; type: in vivo, ICR mice
Description: (§1) In the MES test (Ref., G. Villetti et al. Neuropharmacology 40(2001) 866-878), an electrical stimulus (mice: 50 mA, 60 Hz, 0.2 sec, and rats: 150 mA, 60 Hz, 0.2 sec in the test animal) supplied by an 11A Shocker (IITC Life Science Company) was delivered through corneal electrodes. All mice or rats assigned to any electroshock at peak time were treated with each test compound sample which was dissolved in 20% tween 80 prepared by saline solvent applied orally before the test. […] Three doses of the test sample were administered orally to 9-18 animals (3-6 mice per dose) for evaluating the respective doses at which 50% of the animals were protected from seizure (ED50). The ED50 value (median effective dose) was calculated by Litchfield and Wicoxon log-probit method which is a dose-response relationship. Experimental animals, male ICR mice and male SD rats, were purchased from OrientBio, Samtako, or Nara Biotech, Korea, and housed in cages (4-5 mice or 3 rats per cage) for 4-5 days. The range of mice body weight was between 19 and 25 grams and range of rats body weight was between 100 and 130 grams.

[2] = system: CFA-induced pain model in rats; test: Antiallodynic activity on Complete Freund's Adjuvant (CFA)-induced inflammatory pain model; type: in vivo, Sprague-Dawley rats; details: 50 mg/kg intraperitoneally, von Frey threshold relative to sham, 0.5 hr after administration; for response vs control in vivo at 50 mg/kg: Rattus norvegicus, ip, read-out: Efficacy of 50 mg/kg(%)
Description: Male, Sprague-Dawley rats (210-250 g, Nara Bio, Korea) were habituated for 1 week before surgery and allowed free access to food and water throughout the experimentation. Room temperature and humidity were maintained at 24±2 and 50±10%, respectively.
CFA-induced inflammatory pain was induced by the procedure of Nagakura et al. (2003) and Gregory P. et al. (2010) with minor modifications. CFA (sigma, USA) was injected in the right plantar with a 100 ul volume under gaseous anesthesia with isoflurane. Sham controls were injected with 100 ul of saline, and preparation of the vehicle controls were identical to the group treated with compound, except for administration of vehicles without indentical to the vihecle control group.
Tactile sensitivity (Mechanical allodynia) was evaluated using von Frey monofilaments before and after treatment, and animals were include in the study only if the withdrawal threshold value was less than 4 g. One week after CFA injection, CFA-infused animals, sham-operated animal, and vehicle-operated animals were tested for tactile sensitivity with von Frey monofilaments, with 3 trials for each animal. All Animals were placed in a stainless steel mashe chamber and habituated for 30 min in the test cage. The tactile sensitivity for ipsilateral hind paw was measured using the up-and-down method (Dixon, 1980) with seven von Frey monofilaments (0.4, 1, 2, 4, 6, 8, and 15 g) to 3 trials. The tactile sensitivity test was followed by Dixon's method (Dixon, 1980). The 50% paw withdrawal threshold for each paw was calculated using the following formula: [Xth]log=[vFr]log+ky where [vFr] is the force of the last von Frey used, k=0.2249 which is the average interval (in log units) between the von Frey monofilaments, and y is a value that depends upon the pattern of withdrawal responses (Dixon, 1980).
Antiallodynic effect of compounds was evaluated at the dose of 50 mg/kg (n=4-6), intraperitoneally administrated in a volume of 5 ul/g bw in a vehicle of 30% (v/v) PEG or 20% (v/v) Tween 80. The test was performed peak time of efficacy (0.5 hr) after compound administration.
The relative values compared to the sham (% control) were calculated and shown in Table 5, which show an antiallodynic effect of Compound 1 on CFA-induced pain model in rats.

[3] = system: MES (electroshock) seizure in rats; test: Anti-epilepsy activity, MES test in rats; type: in vivo, SD rats; details: Rattus norvegicus, po
Description: as §1

[4] = system: Lithium-pilocarpine induced seizure in rats; test: Lithium-pilocarpine induced epilepsy test (LI-PILO), prevention test; type: in vivo, Sprague-Dawley rats; details: i.p., dose 100 mg/kg
Description: Male Sprague-Dawley rats (purchased from Orient Bio Inc. Korea) of body weight 175 grams were used for these studies and 3 rats per cage were housed for 4-5 days. On the day prior to SE, rats received 127 mg/kg lithium chloride (Sigma, St. Louis, Mo., U.S.A.) intraperitoneally (i.p.). Approximately 18-20 h following this treatment, rats were given an i.p. injection of the concentration capable of inducing 97% intermittent convulsions pilocarpine(Sigma, 30-43 mg/kg). An i.p. injection of 2 mg/kg methyl-scopolamine (Sigma) was administered 30 min prior to pilocarpine to block the effects of the muscarinic agonist on peripheral cholinergic receptors. Test drugs were dissolved in 20% tween80 (Sigma).
The drugs were administered intraperitoneally (i.p.) in a volume of 2 μl/g body weight. Pharmacological effects of all of the test materials were evaluated to compare test groups (n=6) with a control group (n=6). Control group was administered vehicle only. The efficacy was measured 0.5, 1, 2, or 4 hours after the administration of the test material. The time point that the most animals were protected was defined as peak time and the ED50 was determined at peak time. The animals were then transferred to observation cages and observed continuously for 90 min Seizure was elicited in approximately 95% of the control group. Protection was defined as complete absence of seizure grade 3-5 (Racine scale; Racine, 1972) over the 90-min observation period. The effective dose of the compound necessary to protect 50% of the animals against seizures compared to controls (i.e., ED50) was determined by a curve fitting program (Excel 2007, Microsoft).

[5] = po, read-out: MES test (po) efficacy %

Compound | responders at 100 mg/kg [1, 5] [%] | response vs control in vivo at 50 mg/kg [2] [%] | also measured
NC(=O)O[C@@H]1CCc2ccccc2[C@@H]1O [Example 14, (1S, 2R)-1-hydroxy-1,2,3,4-tetrahydronaphthalen-2-yl carbamate] | 100 | – | –
COCO[C@H]1Cc2cccc(Cl)c2[C@H]1OC(N)=O [Example 76, (1R, 2S)-7-chloro-2-(methoxymethoxy)-2,3-dihydro-1H-inden-1-yl carbamate] | 100 | 59.2 | –
NC(=O)O[C@H]1c2ccc(Cl)cc2CC[C@H]1O [Example 23, (1S, 2R)-6-chloro-2-hydroxy-1,2,3,4-tetrahydronaphthalen-1-yl carbamate] | 33.3 | – | –
NC(=O)O[C@@H]1Cc2c(Cl)cccc2[C@@H]1O [Example 68, (1S, 2R)-4-chloro-1-hydroxy-2,3-dihydro-1H-inden-2-yl carbamate] | – | – | ED50 ([1]; po): 61.2 mg/kg; ED50 [3]: 14.4 mg/kg
NC(=O)O[C@H]1CCc2cccc(I)c2[C@H]1OC(N)=O [Example 37, (1R, 2S)-8-iodo-1,2,3,4-tetrahydronaphthalen-1,2-diyl dicarbamate] | – | – | responders at 300 mg/kg [1, 5]: 33.3%
NC(=O)O[C@H]1c2cc(Cl)ccc2CC[C@H]1O [Example 21, (1S, 2R)-7-chloro-2-hydroxy-1,2,3,4-tetrahydronaphthalen-1-yl carbamate] | 33.3 | 28.9 | –
NC(=O)O[C@H]1c2c(I)cccc2CC[C@H]1O [Example 27, (1S, 2R)-2-hydroxy-8-iodo-1,2,3,4-tetrahydronaphthalen-1-yl carbamate] | – | 37.8 | responders at 200 mg/kg ([1]; po, dose 200 mg/kg, read-out: MES test (po) efficacy %): 100%
NC(=O)O[C@@H]1CCc2cccc(I)c2[C@@H]1OC(N)=O [Example 36, (1S, 2R)-8-iodo-1,2,3,4-tetrahydronaphthalen-1,2-diyl dicarbamate] | – | 72.2 | responders at 300 mg/kg [1, 5]: 33.3%
NC(=O)O[C@@H]1c2cc(Cl)ccc2CC[C@@H]1O [Example 22, (1R, 2S)-7-chloro-2-hydroxy-1,2,3,4-tetrahydronaphthalen-1-yl carbamate] | 100 | 35.7 | –
NC(=O)O[C@H]1CCc2cccc(I)c2[C@H]1O [Example 13, (1R, 2S)-1-hydroxy-8-iodo-1,2,3,4-tetrahydronaphthalen-2-yl carbamate] | 33.3 | 43.1 | –
NC(=O)O[C@@H]1CCc2cccc(I)c2[C@@H]1O [Example 12, (1S, 2R)-1-hydroxy-8-iodo-1,2,3,4-tetrahydronaphthalen-2-yl carbamate] | 100 | 38.5 | –
NC(=O)O[C@H]1Cc2cccc(Cl)c2[C@H]1OC(N)=O [Example 78, (1R, 2S)-7-chloro-2,3-dihydro-1H-inden-1,2-diyl dicarbamate] | 33.3 | 62.3 | –
NC(=O)O[C@@H]1CCc2ccc(Cl)cc2[C@@H]1O [Example 6, (1S, 2R)-7-chloro-1-hydroxy-1,2,3,4-tetrahydronaphthalen-2-yl carbamate] | 33.3 | 26.8 | –
NC(=O)O[C@H]1c2cccc(Cl)c2C[C@H]1O [Example 62, (1S, 2R)-4-chloro-2-hydroxy-2,3-dihydro-1H-inden-1-yl carbamate] | – | – | ED50 ([1]; po): 53.1 mg/kg; ED50 [3]: 24.5 mg/kg
NC(=O)O[C@H]1Cc2cccc(F)c2[C@H]1O [Example 56, (1R, 2S)-7-fluoro-1-hydroxy-2,3-dihydro-1H-inden-2-yl carbamate] | – | 43.2 | ED50 ([1]; po): 45.6 mg/kg
NC(=O)O[C@@H]1CCc2ccccc2[C@@H]1OC(N)=O [Example 38, (1S, 2R)-1,2,3,4-tetrahydronaphthalen-1,2-diyl dicarbamate] | 25 | – | –
NC(=O)O[C@H]1CCc2ccc(Cl)cc2[C@H]1O [Example 7] | – | 28.6 | responders at 150 mg/kg ([1]; po, dose 150 mg/kg, read-out: MES test (po) efficacy %): 100%
NC(=O)O[C@H]1c2ccccc2CC[C@H]1O [Example 16, (1S, 2R)-2-hydroxy-1,2,3,4-tetrahydronaphthalen-1-yl carbamate] | 50 | – | –
NC(=O)O[C@@H]1CCc2cc(Cl)ccc2[C@@H]1O [Example 8, (1S, 2R)-6-chloro-1-hydroxy-1,2,3,4-tetrahydronaphthalen-2-yl carbamate] | 100 | – | –
COCO[C@@H]1c2c(Cl)cccc2C[C@@H]1OC(N)=O [Example 72, (1R, 2S)-7-chloro-1-(methoxymethoxy)-2,3-dihydro-1H-inden-2-yl carbamate] | – | 21.4 | –
8-chloro-2-hydroxy-1,2,3,4-tetrahydronaphthalen-1-yl carbamate (mixture of SR & RS) [Example 20] | – | – | Efficacy of 50 mg/kg(%) [2]: 40.2%; MES test (po) ED50 [1]: 31.4 mg/kg
NC(=O)O[C@H]1CCc2cccc(Cl)c2[C@H]1OC(N)=O [Example 30, (1R, 2S)-8-chloro-1,2,3,4-tetrahydronaphthalen-1,2-diyl dicarbamate] | – | 28.4 | responders at 400 mg/kg ([1]; po, dose 400 mg/kg, read-out: MES test (po) efficacy %): 33.3%
NC(=O)O[C@@H]1CCc2cccc(Cl)c2[C@H]1O [Example 4, (1R, 2R)-8-chloro-1-hydroxy-1,2,3,4-tetrahydronaphthalen-2-yl carbamate] | – | – | ED50 ([1]; po): 80.6 mg/kg
NC(=O)O[C@@H]1CCc2cccc(Cl)c2[C@@H]1OC(N)=O [Example 29, (1S, 2R)-8-chloro-1,2,3,4-tetrahydronaphthalen-1,2-diyldicarbamate] | 66.6 | 30.3 | –
NC(=O)O[C@H]1c2c(F)cccc2C[C@H]1O [Example 69, (1S, 2R)-7-fluoro-2-hydroxy-2,3-dihydro-1H-inden-1-yl carbamate] | 33.3 | – | –
COCO[C@H]1c2c(Cl)cccc2CC[C@H]1OC(N)=O [Example 40, (1S, 2R)-8-chloro-1-(methoxymethoxy)-1,2,3,4-tetrahydronaphthalen-2-yl carbamate] | 100 | – | Lithium pilocarpine model (pre) efficacy % [4]: 66.6%
NC(=O)O[C@H]1CCc2cc(Cl)ccc2[C@H]1O [Example 9, (1R, 2S)-6-chloro-1-hydroxy-1,2,3,4-tetrahydronaphthalen-2-yl carbamate] | – | 27.5 | –
NC(=O)O[C@@H]1c2c(I)cccc2CC[C@@H]1O [Example 28, (1R, 2S)-2-hydroxy-8-iodo-1,2,3,4-tetrahydronaphthalen-1-yl carbamate] | 100 | 42.1 | –
